In paper PMC11985661 (Naunyn-Schmiedeberg's Archives of Pharmacology, 2024):
Where two headings read alike, the source gives them in different places.

What was measured:
[1] = test system: MCF-7; test: MTT cytotoxicity assay; format: cell-based; conditions: Homo sapiens, read-out: IC50 MCF-7
Method: (§1) Numerous cancer cell lines were procured from the American Type Culture Collection (ATCC) situated in Manassas, USA. […] The culture medium was supplemented with penicillin (100 units/mL), streptomycin ([…]), and heat-inactivated fetal bovine serum (10%). The cultivation of these cancer cells was carried out in a humidified atmosphere with 5% (v/v) CO2 at a temperature of 37 °C.
(§2) The 3-[4,5-dimethylthiazole-2-yl]-2,5-diphenyltetrazolium bromide (MTT) assay was used to evaluate the cytotoxicity of different substances or treatments. A commonly used approach for assessing the viability and proliferation of cells, including the cancer cell lines described, is colorimetric analysis.
(§3) Actively proliferating cells from different cancer cell lines were first trypsinized and quantified. […] These seeded cells were incubated in a humidified environment at 37 °C for 24 h to allow for cell attachment and acclimation.
(§4) Following the initial incubation, the cells were subjected to different doses of the chemicals under investigation, ranging from 0.1 to 1000 μM, for a duration of 72 h. The MTT assay was used to evaluate the treated cells’ vitality. Specifically, the culture media were removed, and the cells were incubated with 200 μl of 5% MTT solution per well.
(§5) Due to this, the MTT dye was metabolized by the living cells over the course of 2 h, forming colorful, insoluble formazan crystals.
(§6) This allowed the viable cells to metabolize the MTT dye into colored, insoluble formazan crystals over a 2-h period. After this incubation, the formazan crystals were dissolved in 200 μl of acidified isopropanol per well for 30 min after the residual MTT solution was withdrawn. This dissolution step was carried out at room temperature with a MaxQ 2000 plate shaker, covered with aluminum foil and continuously shaking.
(§7) The absorbance of the dissolved formazan crystals was measured at 570 nm through the use of Stat FaxR 4200 plate reader.

[2] = biological target: T1, VEGFR-2 (Homo sapiens, UniProt P35968); test: In vitro VEGFR-2 kinase assay (Alpha Screen, anti-phosphotyrosine antibody); format: biochemical; conditions: mean of three separate experiments
T1 construct: purchased Millipore, UK
Method: Analyzing the assay of VEGFR-2 kinase involved utilizing the Alpha Screen system (PerkinElmer, USA) and an anti-phosphotyrosine antibody in accordance with the manufacturer’s protocol. A solution containing 50 mM Tris–HCl (pH 7.5), 5 mM MnCl2, 5 mM MgCl2, 0.01% Tween-20, and 2 mM DTT was used to conduct the enzyme reactions. A total of 10 μM ATP, 0.1 μg/mL of biotinylated poly-GluTyr (in a 4:1 ratio), and 0.1 nM of VEGFR-2 (Millipore, UK) were all added in the reaction mixture.
After an overnight dark incubation, the plate was read using an ELISA Reader (PerkinElmer, USA). The baseline control was represented by wells with biotinylated poly-GluTyr (4:1) and the enzyme but without ATP, and the reaction control was provided by wells with the substrate and the enzyme but not the tested compounds.
The percentage inhibition was computed by comparing contrasting the compound-treated samples with the control incubations.

[3] = biological target: T2, EGFR^T790M (Homo sapiens, UniProt P00533, T790M); test: EGFR^T790M kinase inhibition assay (HTRF); format: biochemical; conditions: mean of three separate experiments
T2 construct: purchased Sigma
Method: The study utilized the homogeneous time resolved fluorescence (HTRF) assay to evaluate the kinase activity of EGFR^T790M mutant. The EGFR^T790M enzyme and ATP were obtained from Sigma. Initially, the tested chemical was first incubated for 5 min with the EGFR^T790M enzyme and its substrates in an enzymatic buffer. This pre-incubation step allowed the compound to interact with the enzyme before the catalytic reaction was initiated. […] The assay was carried out at room temperature for 30 min. The samples were mixed with detection reagents containing EDTA to stop the enzymatic process. The detection phase was allowed to proceed for 1 h. By utilizing GraphPad Prism 5.0 software, the inhibitory potency of the tested compounds was determined by calculating the half-maximal inhibitory concentration (IC50) values. Three independent measurements were done to determine the concentration of each compound.

[4] = test system: HepG2; test: MTT cytotoxicity assay; format: cell-based; conditions: Homo sapiens, read-out: IC50 HepG2
Method: as §1, §2, §3, §4, §5, §6, §7

[5] = test system: HCT116; test: MTT cytotoxicity assay; format: cell-based; conditions: Homo sapiens, HCT-116, 72 h, mean of three separate experiments
Method: as §1, §2, §3, §4, §5, §6, §7

[6] = test system: A549; test: MTT cytotoxicity assay; format: cell-based; conditions: Homo sapiens, 72 h, mean of three separate experiments
Method: as §1, §2, §3, §4, §5, §6, §7

T1 sequence (P35968 20-1356): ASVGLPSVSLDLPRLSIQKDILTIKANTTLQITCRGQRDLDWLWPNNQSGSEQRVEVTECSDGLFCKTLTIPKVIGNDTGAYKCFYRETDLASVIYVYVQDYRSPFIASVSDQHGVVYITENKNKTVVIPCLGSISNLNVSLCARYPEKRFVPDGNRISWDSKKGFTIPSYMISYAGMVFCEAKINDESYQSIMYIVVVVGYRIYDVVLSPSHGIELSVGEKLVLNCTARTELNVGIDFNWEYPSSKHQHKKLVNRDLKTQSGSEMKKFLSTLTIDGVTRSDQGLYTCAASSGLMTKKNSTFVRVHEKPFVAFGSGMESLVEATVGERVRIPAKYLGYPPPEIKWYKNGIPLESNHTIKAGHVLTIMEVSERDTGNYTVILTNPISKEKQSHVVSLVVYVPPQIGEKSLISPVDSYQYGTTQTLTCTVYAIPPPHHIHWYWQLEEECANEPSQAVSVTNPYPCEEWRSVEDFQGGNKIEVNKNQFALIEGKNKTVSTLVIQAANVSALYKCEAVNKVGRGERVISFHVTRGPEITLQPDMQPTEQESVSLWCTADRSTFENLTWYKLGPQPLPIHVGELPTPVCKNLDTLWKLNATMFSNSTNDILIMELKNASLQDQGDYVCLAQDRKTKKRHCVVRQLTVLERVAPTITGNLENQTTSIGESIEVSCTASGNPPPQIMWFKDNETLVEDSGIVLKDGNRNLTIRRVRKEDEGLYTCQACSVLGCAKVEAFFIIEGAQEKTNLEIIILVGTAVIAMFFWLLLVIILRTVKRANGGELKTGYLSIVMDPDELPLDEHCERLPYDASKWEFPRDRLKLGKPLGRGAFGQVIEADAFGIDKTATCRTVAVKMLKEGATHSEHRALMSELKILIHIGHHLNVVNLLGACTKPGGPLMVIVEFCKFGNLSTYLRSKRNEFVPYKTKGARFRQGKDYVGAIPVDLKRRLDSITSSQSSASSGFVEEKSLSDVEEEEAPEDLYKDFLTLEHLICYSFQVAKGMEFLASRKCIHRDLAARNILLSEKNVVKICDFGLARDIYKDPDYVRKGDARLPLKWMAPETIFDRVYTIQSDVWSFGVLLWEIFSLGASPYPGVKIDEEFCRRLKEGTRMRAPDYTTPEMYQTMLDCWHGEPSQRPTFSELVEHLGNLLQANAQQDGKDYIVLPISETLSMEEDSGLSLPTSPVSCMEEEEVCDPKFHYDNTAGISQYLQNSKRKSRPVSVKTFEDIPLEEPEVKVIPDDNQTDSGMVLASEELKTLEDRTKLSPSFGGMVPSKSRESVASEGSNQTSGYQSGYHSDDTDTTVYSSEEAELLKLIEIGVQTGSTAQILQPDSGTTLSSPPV
T2 sequence (P00533 25-1210 T790M): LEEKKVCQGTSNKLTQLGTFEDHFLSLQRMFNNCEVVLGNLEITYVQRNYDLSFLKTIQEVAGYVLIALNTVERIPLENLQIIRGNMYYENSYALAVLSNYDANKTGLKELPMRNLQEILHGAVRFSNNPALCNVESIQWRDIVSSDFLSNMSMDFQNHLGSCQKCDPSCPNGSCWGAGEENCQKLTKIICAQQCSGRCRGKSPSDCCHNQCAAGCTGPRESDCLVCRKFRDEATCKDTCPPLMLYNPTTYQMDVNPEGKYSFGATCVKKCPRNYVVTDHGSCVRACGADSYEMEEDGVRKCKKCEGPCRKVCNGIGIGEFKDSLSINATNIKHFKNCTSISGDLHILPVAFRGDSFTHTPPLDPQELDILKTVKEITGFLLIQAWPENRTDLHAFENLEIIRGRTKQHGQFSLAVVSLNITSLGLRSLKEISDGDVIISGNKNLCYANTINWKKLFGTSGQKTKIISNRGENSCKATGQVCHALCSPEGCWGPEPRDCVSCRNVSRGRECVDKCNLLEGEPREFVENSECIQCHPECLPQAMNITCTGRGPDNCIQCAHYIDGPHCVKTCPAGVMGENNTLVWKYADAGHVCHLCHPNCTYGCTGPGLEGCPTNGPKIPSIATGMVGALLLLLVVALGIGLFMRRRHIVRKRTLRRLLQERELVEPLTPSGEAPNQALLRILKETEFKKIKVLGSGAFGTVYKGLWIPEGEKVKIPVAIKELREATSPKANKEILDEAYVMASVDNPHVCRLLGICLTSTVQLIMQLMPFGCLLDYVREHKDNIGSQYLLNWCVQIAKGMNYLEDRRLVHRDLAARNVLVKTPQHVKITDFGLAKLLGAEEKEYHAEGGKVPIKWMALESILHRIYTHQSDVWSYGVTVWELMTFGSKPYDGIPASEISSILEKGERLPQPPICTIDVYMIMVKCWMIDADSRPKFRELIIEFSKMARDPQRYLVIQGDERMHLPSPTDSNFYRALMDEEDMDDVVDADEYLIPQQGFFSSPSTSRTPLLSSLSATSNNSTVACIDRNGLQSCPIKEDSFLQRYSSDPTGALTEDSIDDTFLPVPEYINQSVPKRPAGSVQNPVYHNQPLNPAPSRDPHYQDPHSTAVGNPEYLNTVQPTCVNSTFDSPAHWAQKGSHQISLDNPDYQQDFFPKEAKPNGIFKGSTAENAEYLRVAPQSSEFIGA

C#Cc1cccc(Nc2ncnc3cc(OCCOC)c(OCCOC)cc23)c1 [Erlotinib]
IC50 ([1]; MCF7, 72 h): 8.2 µM

C[C@@H]1O[C@@H](OC[C@H]2O[C@@H](Oc3c(-c4ccc(O)c(O)c4)oc4cc(O)cc(O)c4c3=O)[C@H](O)[C@@H](O)[C@@H]2O)[C@H](O)[C@H](O)[C@H]1O [Rutin (3), rutin]
IC50 [2]: 1.18 µM | IC50 [3]: 0.66 µM | IC50 ([4]; HepG2, MTT, 72 h, mean of three separate experiments): 14.9 µM | IC50 [5]: 15.6 µM | IC50 ([1]; MCF7, MTT, 72 h, mean of three separate experiments): 12.3 µM | IC50 [6]: 8.71 µM

CNC(=O)c1cc(Oc2ccc(NC(=O)Nc3ccc(Cl)c(C(F)(F)F)c3)cc2)ccn1 [Sorafenib]
IC50 ([4]; HepG2, 72 h): 4 µM
